Assay results from patent US6762174B1 (priority 1998, dated 2004).
Read-outs that look alike come from different tables or passages of the source.

Tests used:
MOPC-315 myeloma [1] = assay: MOPC-315 Myeloma study #5: Melphalan + β-alethine ip day 9 (1 × 10^6 tumor cells); conditions: for Tumor Size: 1.25 mg/kg mp; for Animals Surviving: mp 1.25 mg/kg
MOPC-315 myeloma [2] = assay: MOPC-315 Myeloma study #4: Melphalan + β-alethine ip day 10 (1 × 10^6 tumor cells); conditions: for Animals Surviving: mp 1.25 mg/kg; for Mean Tumor Size: mp alone
MOPC-315 myeloma [3] = assay: MOPC-315 Myeloma study #6: β-alethine ip day 9, 10 or 11, mp ip day 10 (1 × 10^6 tumor cells); conditions: for Animals Surviving: mp 1.25 mg/kg d 10 alone (20 mice)
[4] = DEX.10 mg IP
B16 melanoma = type: in vivo, female BDF1 mice; conditions: for Statistically Significant Effect on Reducing Tumor Volume: cp alone
[5] = system: MT-1 breast cancer xenograft; conditions: for Died of toxic effects: 8 mice
[6] = mp on day 10, BT none, 20 in group

Structure (SMILES): N[C@@H](Cc1ccc(N(CCCl)CCCl)cc1)C(=O)O [mp, melphalan]
- Tumor Size (MOPC-315 myeloma [1]; day 13): 20.4 mm
- Tumor Size (MOPC-315 myeloma [1]; day 16): 19.2 mm
- Tumor Size (MOPC-315 myeloma [1]; day 20): 17.0 mm
- Tumor Size (MOPC-315 myeloma [1]; day 23): 10.2 mm
- Tumor Size (MOPC-315 myeloma [1]; day 27): 0 mm
- Animals Surviving (MOPC-315 myeloma [1]; day 10): 10
- Animals Surviving (MOPC-315 myeloma [1]; day 11): 10
- Animals Surviving (MOPC-315 myeloma [1]; day 12): 10
- Animals Surviving (MOPC-315 myeloma [1]; day 13): 10
- Animals Surviving (MOPC-315 myeloma [1]; day 14): 10
- Animals Surviving (MOPC-315 myeloma [1]; day 15): 10
- Animals Surviving (MOPC-315 myeloma [1]; day 16): 10
- Animals Surviving (MOPC-315 myeloma [1]; day 17): 10
- Animals Surviving (MOPC-315 myeloma [1]; day 18): 10
- Animals Surviving (MOPC-315 myeloma [1]; day 19): 10
- Animals Surviving (MOPC-315 myeloma [1]; day 20): 9
- Animals Surviving (MOPC-315 myeloma [1]; day 21): 9
- Animals Surviving (MOPC-315 myeloma [1]; day 22): 9
- Animals Surviving (MOPC-315 myeloma [1]; day 23): 8
- Animals Surviving (MOPC-315 myeloma [1]; day 25): 8
- Animals Surviving (MOPC-315 myeloma [1]; day 26): 8
- Animals Surviving (MOPC-315 myeloma [1]; day 28): 7
- Animals Surviving (MOPC-315 myeloma [1]; day 29): 7
- Animals Surviving (MOPC-315 myeloma [1]; day 31): 7
- animals in ten cured (MOPC-315 myeloma [2]; mp 1.25 mg/kg alone): one
- cure occurred, days after treatment began (MOPC-315 myeloma [2]; mp 1.25 mg/kg alone): 19 days
- Animals Surviving (MOPC-315 myeloma [2]; day 10): 10
- Animals Surviving (MOPC-315 myeloma [2]; day 11): 8
- Animals Surviving (MOPC-315 myeloma [2]; day 12): 5
- Animals Surviving (MOPC-315 myeloma [2]; day 13): 4
- Animals Surviving (MOPC-315 myeloma [2]; day 14): 3
- Animals Surviving (MOPC-315 myeloma [2]; day 15): 3
- Animals Surviving (MOPC-315 myeloma [2]; day 16): 3
- Animals Surviving (MOPC-315 myeloma [2]; day 17): 3
- Animals Surviving (MOPC-315 myeloma [2]; day 18): 3
- Animals Surviving (MOPC-315 myeloma [2]; day 19): 3
- Animals Surviving (MOPC-315 myeloma [2]; day 20): 3
- Animals Surviving (MOPC-315 myeloma [2]; day 21): 3
- Animals Surviving (MOPC-315 myeloma [2]; day 22): 3
- Animals Surviving (MOPC-315 myeloma [2]; day 23): 3
- Animals Surviving (MOPC-315 myeloma [2]; day 25): 3
- Animals Surviving (MOPC-315 myeloma [2]; day 26): 3
- Animals Surviving (MOPC-315 myeloma [2]; day 27): 3
- Animals Surviving (MOPC-315 myeloma [2]; day 29): 3
- Animals Surviving (MOPC-315 myeloma [2]; day 31): 1
- Mean Tumor Size (MOPC-315 myeloma [2]; day 10): 22.5 mm
- Mean Tumor Size (MOPC-315 myeloma [2]; day 14): 19 mm
- Mean Tumor Size (MOPC-315 myeloma [2]; day 17): 17 mm
- Mean Tumor Size (MOPC-315 myeloma [2]; day 21): 22 mm
- Mean Tumor Size (MOPC-315 myeloma [2]; day 29): 28 mm
- Animals Surviving (MOPC-315 myeloma [3]; test day 10): 20
- Animals Surviving (MOPC-315 myeloma [3]; test day 11): 20
- Animals Surviving (MOPC-315 myeloma [3]; test day 12): 20
- Animals Surviving (MOPC-315 myeloma [3]; test day 13): 20
- Animals Surviving (MOPC-315 myeloma [3]; test day 14): 20
- Animals Surviving (MOPC-315 myeloma [3]; test day 15): 20
- Animals Surviving (MOPC-315 myeloma [3]; test day 16): 19
- Animals Surviving (MOPC-315 myeloma [3]; test day 17): 19
- Animals Surviving (MOPC-315 myeloma [3]; test day 18): 19
- Animals Surviving (MOPC-315 myeloma [3]; test day 19): 19
- Animals Surviving (MOPC-315 myeloma [3]; test day 20): 19
- Animals Surviving (MOPC-315 myeloma [3]; test day 21): 15
- Animals Surviving (MOPC-315 myeloma [3]; test day 22): 9
- Animals Surviving (MOPC-315 myeloma [3]; test day 23): 9
- Animals Surviving (MOPC-315 myeloma [3]; test day 25): 7
- Animals Surviving (MOPC-315 myeloma [3]; test day 26): 4
- Animals Surviving (MOPC-315 myeloma [3]; test day 27): 3
- Animals Surviving (MOPC-315 myeloma [3]; test day 29): 2
- Animals Surviving (MOPC-315 myeloma [3]; test day 31): 2
- day 21 tumor size (MOPC-315 myeloma [3]; mp on day 10, BT none): 25.8 mm
- day half are dead (MOPC-315 myeloma [3]; mp on day 10, BT none): 22
- cures day 21 (MOPC-315 myeloma [3]; [6]): 2
- deaths day 21 (MOPC-315 myeloma [3]; [6]): 5
- cures day 21 (MOPC-315 myeloma [3]; mp on day 10, BT none, 20 in group, listed as melphalan): 2/20
- day 21 tumor size (MOPC-315 myeloma [3]; mp on day 10, BT none, listed as melphalan): 26 mm

Structure (SMILES): C[C@@H]1C[C@H]2[C@@H]3CCC4=CC(=O)C=C[C@]4(C)[C@@]3(F)[C@@H](O)C[C@]2(C)[C@@]1(O)C(=O)CO [DEX., dexamethasone]
- Percent Body Weight Loss From Day 0 ([4]; day 1): 3.0%
- Percent Body Weight Loss From Day 0 ([4]; day 5): 4.6%
- Percent Body Weight Loss From Day 0 ([4]; day 6): 2.8%
- Percent Body Weight Loss From Day 0 ([4]; day 7): 3.4%
- Percent Body Weight Loss From Day 0 ([4]; day 8): 2.4%
- Percent Body Weight Loss From Day 0 ([4]; day 9): 3.6%
- Percent Body Weight Loss From Day 0 ([4]; day 10): 2.8%
- Percent Body Weight Loss From Day 0 ([4]; day 11): 1.3%
- Percent Body Weight Loss From Day 0 ([4]; day 12): 3.7%
- Percent Body Weight Loss From Day 0 ([4]; day 13): 2.1%
- Percent Body Weight Loss From Day 0 ([4]; day 21): 0.1%

Structure (SMILES): O=P1(N(CCCl)CCCl)NCCCO1 (stereo not shown) [cp, cyclophosphamide]
- Percent of Animals with Greater than 10 Metastases (B16 melanoma; Cp 200 mg/kg): 50%
- animals with 0-10 Metastases on Day 42 (B16 melanoma; Cp 200 mg/kg): 4
- animals with 11-20 Metastases on Day 42 (B16 melanoma; Cp 200 mg/kg): 3
- animals with 21-30 Metastases on Day 42 (B16 melanoma; Cp 200 mg/kg): 0
- animals with over 30 Metastases (full of metastases) on Day 42 (B16 melanoma; Cp 200 mg/kg): 1
- Primary Tumor Size (Median RTV) (B16 melanoma; cp 200 mg/kg alone, day 0): 1
- Primary Tumor Size (Median RTV) (B16 melanoma; cp 200 mg/kg alone, day 4): 1.0
- Primary Tumor Size (Median RTV) (B16 melanoma; cp 200 mg/kg alone, day 7): 2.4
- Primary Tumor Size (Median RTV) (B16 melanoma; cp 200 mg/kg alone, day 10): 3.5
- Primary Tumor Size (Median RTV) (B16 melanoma; cp 200 mg/kg alone, day 14): 12.9
- Primary Tumor Size (Median RTV) (B16 melanoma; cp 200 mg/kg alone, day 17): 32.6
- T/C ratio for medium tumor volume (B16 melanoma; cp 200 mg/kg alone, day 17): 82.3%
- Statistically Significant Effect on Reducing Tumor Volume (B16 melanoma; DAY 7): No
- Statistically Significant Effect on Reducing Tumor Volume (B16 melanoma; DAY 10): Yes
- Statistically Significant Effect on Reducing Tumor Volume (B16 melanoma; DAY 14): Yes
- Statistically Significant Effect on Reducing Tumor Volume (B16 melanoma; DAY 17): No
- Median Relative Tumor Volume ([5]; 100 mg/kg cp, day 42): 1
- Median Relative Tumor Volume ([5]; 100 mg/kg cp, day 46): 1.37
- Median Relative Tumor Volume ([5]; 100 mg/kg cp, day 49): 1.54
- Median Relative Tumor Volume ([5]; 100 mg/kg cp, day 53): 1.50
- Median Relative Tumor Volume ([5]; 100 mg/kg cp, day 59): 1.85
- Median Relative Tumor Volume ([5]; 200 mg/kg cp, day 42): 1
- Median Relative Tumor Volume ([5]; 200 mg/kg cp, day 46): 1.15
- Median Relative Tumor Volume ([5]; 200 mg/kg cp, day 49): 1.11
- Median Relative Tumor Volume ([5]; 200 mg/kg cp, day 53): 1.21
- Median Relative Tumor Volume ([5]; 200 mg/kg cp, day 59): 1.15
- Median Relative Tumor Volume ([5]; 300 mg/kg cp, day 42): 1
- Median Relative Tumor Volume ([5]; 300 mg/kg cp, day 46): 1.34
- Median Relative Tumor Volume ([5]; 300 mg/kg cp, day 49): 1.14
- Median Relative Tumor Volume ([5]; 300 mg/kg cp, day 53): 1.15
- Median Relative Tumor Volume ([5]; 300 mg/kg cp, day 59): 1.14
- T/C RTV d 49 ([5]; Cp 100 mg/kg): 87%
- T/C RTV d 59 ([5]; Cp 100 mg/kg): 81%
- WBC d 46 ([5]; Cp 100 mg/kg): 10.3 10^6/mL
- T/C RTV d 49 ([5]; Cp 200 mg/kg): 63%
- T/C RTV d 59 ([5]; Cp 200 mg/kg): 50%
- WBC d 46 ([5]; Cp 200 mg/kg): 5.5 10^6/mL
- Last 2 readings indicate progression ([5]; Cp 300 mg/kg): 12%
- Last 2 readings indicate regression ([5]; Cp 300 mg/kg): 12%
- Last 2 readings stayed the same ([5]; Cp 300 mg/kg): 0%
- Last reading indicates progression ([5]; Cp 300 mg/kg): 25%
- Last reading indicates regression ([5]; Cp 300 mg/kg): 25%
- T/C RTV d 49 ([5]; Cp 300 mg/kg): 65%
- T/C RTV d 59 ([5]; Cp 300 mg/kg): 50%
- WBC d 46 ([5]; Cp 300 mg/kg): 5.6 10^6/mL
- Died of toxic effects ([5]; Cp 300 mg/kg): 25%
- Died of toxic effects ([5]; Cp 300 mg/kg, listed as Cp): 25%
